In US12583892B2 (priority 2020, dated 2026):

Test system: NMDAR-dependent EPSCs
Format: cell-based, rat

`CC(C(O)c1ccc(O)cc1)N1CCC(Cc2ccccc2)CC1` (stereo not shown) [ifenprodil] was tested, and the “NMDARs-dependent EPSCs, young neurons” value was “inhibition”.
